Data: patent US20150290280A1, “ANTIMICROBIAL ARTICLES PRODUCED BY ADDITIVE MANUFACTURING” (ORTHOPAEDIC INNOVATION CENTER INC., priority 2012, published 2015)

Experiments:
Staphylococcus aureus = experiment: Zones of inhibition around 3D-printed coupons on S. aureus plated on Tryptic soy agar (Example 1); assay type: cell-based; conditions: 3D-printed PLA coupon (25 mm diameter) comprising 1% tobramycin; shiny side down; TSA; 72 h at 37° C.
Protocol: The 1% tobramycin/PLA filament was supplied to the extrusion nozzle of a STRATASYS® MOJO® FDM® 3D printer (STRATASYS and MOJO are registered trademarks of Stratasys Inc., Eden Prairie, Minn., USA) to print replicate test coupons with an extrusion temperature of 205° C. […] Control coupons having the same physical dimensions and appearance as the test coupons, were printed with the STRATASYS® MOJO® FDM® 3D printer by feeding the control PLA filament through the extrusion nozzle at an extrusion temperature of 205° C.
Aliquots of a culture of Staphylococcus aureus grown in Tryptic soy broth (TSB) were plated onto the surface of Tryptic soy agar (TSA) contained within Petri plates. Two test coupons were placed onto the plated S. aureus culture in a Petri plate with one shiny side down and one matte side down. Two control coupons were placed onto the plated S. aureus culture in a Petri plate with one shiny side down and one matte side down. Triplicate plates were prepared with test coupon and with control coupons. The Petri plates were incubated for 72 h at 37° C. after which, the plates were examined for the occurrence of zones of inhibition around the coupons. No inhibition of the growth of S. aureus in the Petri plates receiving the control coupons. […]

S. aureus = experiment: Elution of antibiotics from 3D-printed coupons assessed by inhibition of growth of S. aureus on Meuller Hinton agar (Examples 3 and 4); assay type: cell-based, Staphylococcus aureus; conditions: about 72 hrs, 35-37° C., 25 = coupon diameter = no inhibition; for zone of inhibition, articles comprising PLA, antibiotic concentration 1%: 1% w/w antibiotic in PLA coupon; for zone of inhibition, articles comprising PLA, antibiotic concentration 2%: 2% w/w antibiotic in PLA coupon; for zone of inhibition, articles comprising PLA, antibiotic concentration 5%: 5% w/w antibiotic in PLA coupon; for zone of inhibition, articles comprising PCL polymer, antibiotic concentration 1%: 1% w/w antibiotic in PCL coupon; for zone of inhibition, articles comprising PCL polymer, antibiotic concentration 2%: 2% w/w antibiotic in PCL coupon; for zone of inhibition, articles comprising PCL polymer, antibiotic concentration 5%: 5% w/w antibiotic in PCL coupon
Protocol: Control coupons having the same physical dimensions and appearance as the test coupons, were printed with the […]® MOJO® printer by feeding the control filaments through the extrusion nozzle. The 2% and 5% tobramycin/PLA test coupons were printed with an extrusion temperature of 170° C., while the PLA control coupons and the 1% tobramycin/PLA test coupons were printed with an extrusion temperature of 205° C. The N12 control coupons, the 1%, 2%, and 5% gentamicin/N12 coupons, and the 1%, 2%, and 5% vancomycin/N12 coupons were printed at an extrusion temperature of 195° C. The remaining control coupons and test coupons were printed with an extrusion temperature of 170° C. The elution of antibiotics from the test coupons produced in Example 2 was assessed by the inhibition of the growth of S. aureus on the surfaces of Meuller Hinton agar contained within Petri dishes onto which test coupons placed. S. aureus cultures were grown on TSA amended with 5% sheep blood. A sufficient amount of S. aureus culture was transferred from the TSA culture plates to a 0.85% sterile saline solution to provide a uniform suspension that fell within a 0.5-2.0 McFarland turbidity standard. Aliquots of the S. aureus culture were plated onto Meuller Hinton agar in Petri dishes after which, two test coupons/dish (or alternatively, control coupons) were placed on the agar; one with its shiny side up and the other with its matte side up. The Meuller Hinton agar-containing Petri dishes were then incubated for about 72 hrs at temperatures in the range of about 35° C. to about 37° C. The zones of inhibition around each coupon were then measured and recorded (in mm) A clear zone around a test coupon indicates the inhibition of growth of S. aureus. […] The data shown in Tables 10, 11, and 12 confirm that all three antibiotics tested, i.e., tobramycin, gentamicin, and vancomycin, were eluted from articles printed with extruded antibiotic-containing polymers as evidenced by zones of inhibition of S. aureus cultures by articles comprising PLA polymer (Table 10), inhibition of S. aureus cultures by articles comprising PCL polymer (Table 11), and inhibition of S. aureus cultures by articles comprising HPDE polymer (Table 12). […] The control coupons for this study were taken from the batch of control coupons produced in Example 1. […] The data shown in Table 14 confirm that the three antibiotics were eluted from articles printed with extruded polymers comprising the three antibiotics.

| Molecule | zones of inhibition in the growth of S. aureus around the shiny surfaces (Staphylococcus aureus) | zone of inhibition, articles comprising HDPE polymer, antibiotic concentration 1% (S. aureus; 1% w/w antibiotic in HDPE coupon) | zone of inhibition, articles comprising PLA, antibiotic concentration 1% (S. aureus) | zone of inhibition, articles comprising HDPE polymer, antibiotic concentration 2% (S. aureus; 2% w/w antibiotic in HDPE coupon) | zone of inhibition, articles comprising PLA, antibiotic concentration 2% (S. aureus) | zone of inhibition, articles comprising HDPE polymer, antibiotic concentration 5% (S. aureus; 5% w/w antibiotic in HDPE coupon) | zone of inhibition, articles comprising PLA, antibiotic concentration 5% (S. aureus) | zone of inhibition, articles comprising PCL polymer, antibiotic concentration 1% (S. aureus) | zone of inhibition, articles comprising PCL polymer, antibiotic concentration 2% (S. aureus) | zone of inhibition, articles comprising PCL polymer, antibiotic concentration 5% (S. aureus) |
| --- | --- | --- | --- | --- | --- | --- | --- | --- | --- | --- |
| NC[C@H]1O[C@H](O[C@H]2[C@H](O)[C@@H](O[C@H]3O[C@H](CO)[C@@H](O)[C@H](N)[C@H]3O)[C@H](N)C[C@@H]2N)[C@H](N)C[C@@H]1O [Tobramycin, tobramycin] | 37.7 mm | 27.0 mm | 37.7 mm | 28.5 mm | 27.5 mm | 37.5 mm | 28 mm | – | – | – |
| gentamicin | – | – | 34.0 mm | – | 26.5 mm | – | 37.5 mm | 32.0 mm | 38.5 mm | 41.0 mm |
| CN[C@H](CC(C)C)C(=O)N[C@H]1C(=O)N[C@@H](CC(N)=O)C(=O)N[C@H]2C(=O)N[C@H]3C(=O)N[C@H](C(=O)N[C@H](C(=O)O)c4cc(O)cc(O)c4-c4cc3ccc4O)[C@H](O)c3ccc(c(Cl)c3)Oc3cc2cc(c3O[C@@H]2O[C@H](CO)[C@@H](O)[C@H](O)[C@H]2O[C@H]2C[C@](C)(N)[C@H](O)[C@H](C)O2)Oc2ccc(cc2Cl)[C@H]1O [Vancomycin, vancomycin] | – | – | – | – | – | – | – | 28.5 mm | 25 mm | 28.5 mm |
